Results as given in patent publication US20220160608A1, “PEPTIDE FOR REDUCING HAIR LOSS AND PROMOTING HAIR GROWTH, AND COSMETIC COMPOSITION AND PHARMACEUTICAL COMPOSITION COMPRISING SAME” (INCOSPHARM CORPORATION, priority 2019, published 2022).

Experiments:
[1] = tested on: growth hormones VEGF, IGF-I, FGF10; experiment: Western blot for expression of hair-related growth hormone proteins in HFDPCs; format: cell-based, human; conditions: 10 or 40 μM respectively, 48 hours
Experimental: Specifically, human follicular dermal papilla cells (HFDPCs) were uniformly plated with western blot experimental method at the number of 1×10^5 cells in a 6-well plate and cultured in an incubator in DMEM (Dulbecco's Modified Eagle Media, Gibco BRL) for 24 hours at 37° C. under 5% CO2 conditions. […] Thereafter, 1 ml of each dilution solution was added in each well containing 1 ml of medium, and incubated for 48 hours. After the culture was completed, the medium was removed and the cells were disrupted with SDS sample buffer, followed by separating each protein on SDS-PAGE gel electrophoresis, transferring to a polyvinylidene fluoride (PVDF) membrane, and then removing non-specific binding using a blocking buffer.

FGF1 and FGF7 = experiment: RT-PCR for FGF1 and FGF7 gene expression in human dermal papilla cells; format: cell-based; conditions: 10 or 40 μM
Description: (§1) After completion of the culture, the cells were disrupted with Trizol (Ambion), total mRNA was collected with chloroform/isopropanol, and cDNA was synthesized with reverse transcriptase.

MMP-2 and ALP = experiment: RT-PCR for MMP-2 and ALP gene expression in human dermal papilla cells; format: cell-based; conditions: compared to the control group
Experimental: as §1
RT-PCR (Thermal Cycler, Bio-rad) was performed using primers specific for MMP-2 and ALP, and the amplified product was analyzed by agarose gel electrophoresis, and the results are shown in (a) of FIG. 6.

[2] = tested on: Wnt/β-catenin signaling pathway; conditions: HFDPCs; for expression of p-GSK3β protein / expression of β-catenin protein: Western blot, compared to control group not treated with the peptide; for expression of active β-catenin protein, concentration screening: all concentrations from 0.1 μM to 100 μM (SEQ ID NO: 5) or 50 μM (SEQ ID NO: 10), effect not concentration-dependent
Experimental: Human follicular dermal papilla cells (HFDPCs) were uniformly plated at the number of 1×10^5 or 5×10^4 cells in a 6-well plate and cultured in an incubator in DMEM (Dulbecco's Modified Eagle Media, Gibco BRL) for 24 hours at 37° C. under 5% CO2 conditions. […] After adding 1 ml of each dilution to each well containing 1 ml of the medium the cells were incubated for a certain period of time. After the culture was completed, the medium was removed, the cells were disrupted with SDS sample buffer. Each protein was separated by SDS-PAGE gel electrophoresis and transferred to a polyvinylidene fluoride (PVDF) membrane, and then non-specific binding was eliminated using a blocking buffer.

[3] = tested on: p21 (cyclin-dependent kinase inhibitor 1a, Cdkn1a); conditions: HFDPCs, Western blot, compared to the control group
Experimental: Specifically, human follicular dermal papilla cells (HFDPCs) were uniformly plated with western blot experimental method at the number of 1×10^5 cells in a 6-well plate and cultured in an incubator in DMEM (Dulbecco's Modified Eagle Media, Gibco BRL) for 24 hours at 37° C. under 5% CO2 conditions. The peptides of SEQ ID NO: 5 and SEQ ID NO: 10 of the present invention were dissolved in water at a concentration of 10 mM to obtain a concentrate, which was diluted with a medium to an optimal concentration of 10 or 40 μM, respectively. Thereafter, 1 ml of each dilution solution was added in each well containing 1 ml of medium, and incubated for 48 hours. After the culture was completed, the medium was removed and the cells were disrupted with SDS sample buffer, followed by separating each protein on SDS-PAGE gel electrophoresis, transferring to a polyvinylidene fluoride (PVDF) membrane, and then removing non-specific binding using a blocking buffer.
In order to analyze whether p21 may be inhibited by treatment with peptides of SEQ ID NO: 5 and SEQ ID NO: 10, Western blot for an expression of p21 protein was performed.
After transferring to a PVDF membrane (polyvinylidene fluoride), non-specific binding was eliminated using a blocking buffer.

human hair follicles = conditions: SEQ ID NO: 5 100 μM, SEQ ID NO: 10 16.6 μM; 7 or 10 days culture; compared to IGF-1 (10 ng/ml) or Minoxidil (10 μM) positive control
Experimental: After separating the surrounding tissues, the hair follicles isolated from the human scalp tissues were stored in Earle's balanced salts solution (EBSS; SigmaAldrich). The hair follicles in anagen phase were carefully separated under a microscope and then used in the experiment. The isolated hair follicles were cultured in Williams medium E (Gibco, Grand Island, N.Y., USA) at 37° C., 5% CO2 and 95% air with an addition of 2 mM L-glutamine (Gibco, NY, USA), 10 μg/ml insulin (SigmaAldrich), 10 ng/ml hydrocortisone (SigmaAldrich), 100 Unit/ml penicillin and 100 μg/ml streptomycin. […] At this time, as a positive control group, Minoxidil (10 μM) or IGF-1 (10 ng/ml) was treated.

[4] = tested on: Wnt/β-catenin signaling pathway inhibited by DKK-1; experiment: Inhibition of DKK-1 activity: reactivation of Wnt/β-catenin signaling inhibited by recombinant DKK-1 (Western blot, HFDPCs); conditions: for recovery (increase) of expression level of non-phospho (active) β-catenin: peptide treated simultaneously with recombinant DKK-1
Experimental: Specifically, human follicular dermal papilla cells (HFDPCs) were uniformly plated at the number of 5×10^4 cells in a 12-well plate and cultured in an incubator in DMEM (Dulbecco's Modified Eagle Media, Gibco BRL) for 24 hours at 37° C. under 5% CO2 conditions. After culturing, each well was treated with the recombinant protein DKK-1 to inhibit the Wnt/β-catenin signaling pathway, and further treated with the peptides of SEQ ID NO: 5 and SEQ ID NO: 10 of the present invention at appropriate concentrations, followed by culturing for a certain period of time.
After the culture was completed, the medium was removed, the cells were disrupted with SDS sample buffer. Each protein was separated by SDS-PAGE gel electrophoresis and transferred to a PVDF membrane (polyvinylidene fluoride), and then non-specific binding was eliminated using a blocking buffer.

LRP5 = LRP5 (human, UniProt O75197 32-1615); experiment: cell-based or functional assay
Sequence of LRP5 (O75197 32-1615): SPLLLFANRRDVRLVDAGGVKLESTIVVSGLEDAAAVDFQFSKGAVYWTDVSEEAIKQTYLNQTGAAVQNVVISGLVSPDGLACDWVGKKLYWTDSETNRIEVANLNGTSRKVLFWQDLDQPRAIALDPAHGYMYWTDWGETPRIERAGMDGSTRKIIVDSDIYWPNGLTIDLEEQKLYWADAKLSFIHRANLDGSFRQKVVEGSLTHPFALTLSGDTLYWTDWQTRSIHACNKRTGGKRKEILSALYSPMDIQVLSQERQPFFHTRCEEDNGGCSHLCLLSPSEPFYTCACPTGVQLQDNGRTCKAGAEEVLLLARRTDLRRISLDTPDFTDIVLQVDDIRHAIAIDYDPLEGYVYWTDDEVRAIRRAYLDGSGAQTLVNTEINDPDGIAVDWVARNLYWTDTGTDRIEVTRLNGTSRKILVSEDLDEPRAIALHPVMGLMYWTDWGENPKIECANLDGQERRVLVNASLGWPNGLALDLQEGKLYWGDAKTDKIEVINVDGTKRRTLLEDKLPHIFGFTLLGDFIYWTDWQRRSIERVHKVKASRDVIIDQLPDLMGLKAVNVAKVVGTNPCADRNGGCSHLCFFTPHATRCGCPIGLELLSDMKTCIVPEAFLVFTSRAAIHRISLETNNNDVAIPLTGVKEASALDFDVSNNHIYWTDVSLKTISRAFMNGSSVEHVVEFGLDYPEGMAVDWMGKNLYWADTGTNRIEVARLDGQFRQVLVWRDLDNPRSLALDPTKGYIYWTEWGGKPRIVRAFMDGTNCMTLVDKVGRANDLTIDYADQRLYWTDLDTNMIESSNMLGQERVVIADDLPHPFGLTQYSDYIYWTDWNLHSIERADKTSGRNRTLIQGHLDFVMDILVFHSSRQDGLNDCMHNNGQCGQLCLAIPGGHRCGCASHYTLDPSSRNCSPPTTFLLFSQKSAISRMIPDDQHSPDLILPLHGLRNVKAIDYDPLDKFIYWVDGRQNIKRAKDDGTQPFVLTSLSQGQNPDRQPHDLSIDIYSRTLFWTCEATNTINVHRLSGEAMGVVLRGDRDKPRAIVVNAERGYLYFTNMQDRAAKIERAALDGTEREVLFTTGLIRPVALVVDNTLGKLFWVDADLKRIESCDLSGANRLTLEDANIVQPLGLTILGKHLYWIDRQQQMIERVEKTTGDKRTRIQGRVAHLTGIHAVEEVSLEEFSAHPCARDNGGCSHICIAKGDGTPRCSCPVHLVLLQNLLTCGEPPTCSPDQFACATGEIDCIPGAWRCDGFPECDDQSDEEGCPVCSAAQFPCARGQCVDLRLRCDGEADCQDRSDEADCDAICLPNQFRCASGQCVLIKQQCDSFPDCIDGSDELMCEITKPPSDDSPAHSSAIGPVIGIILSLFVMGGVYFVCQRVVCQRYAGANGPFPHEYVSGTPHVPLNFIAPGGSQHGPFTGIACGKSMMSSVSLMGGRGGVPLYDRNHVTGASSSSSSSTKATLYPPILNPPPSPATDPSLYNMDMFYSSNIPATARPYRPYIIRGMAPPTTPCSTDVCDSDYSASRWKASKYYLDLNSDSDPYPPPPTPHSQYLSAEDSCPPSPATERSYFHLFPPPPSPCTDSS

LRP6 = LRP6 (human, UniProt O75581 20-1613); experiment: cell-based or functional assay
Sequence of LRP6 (O75581 20-1613): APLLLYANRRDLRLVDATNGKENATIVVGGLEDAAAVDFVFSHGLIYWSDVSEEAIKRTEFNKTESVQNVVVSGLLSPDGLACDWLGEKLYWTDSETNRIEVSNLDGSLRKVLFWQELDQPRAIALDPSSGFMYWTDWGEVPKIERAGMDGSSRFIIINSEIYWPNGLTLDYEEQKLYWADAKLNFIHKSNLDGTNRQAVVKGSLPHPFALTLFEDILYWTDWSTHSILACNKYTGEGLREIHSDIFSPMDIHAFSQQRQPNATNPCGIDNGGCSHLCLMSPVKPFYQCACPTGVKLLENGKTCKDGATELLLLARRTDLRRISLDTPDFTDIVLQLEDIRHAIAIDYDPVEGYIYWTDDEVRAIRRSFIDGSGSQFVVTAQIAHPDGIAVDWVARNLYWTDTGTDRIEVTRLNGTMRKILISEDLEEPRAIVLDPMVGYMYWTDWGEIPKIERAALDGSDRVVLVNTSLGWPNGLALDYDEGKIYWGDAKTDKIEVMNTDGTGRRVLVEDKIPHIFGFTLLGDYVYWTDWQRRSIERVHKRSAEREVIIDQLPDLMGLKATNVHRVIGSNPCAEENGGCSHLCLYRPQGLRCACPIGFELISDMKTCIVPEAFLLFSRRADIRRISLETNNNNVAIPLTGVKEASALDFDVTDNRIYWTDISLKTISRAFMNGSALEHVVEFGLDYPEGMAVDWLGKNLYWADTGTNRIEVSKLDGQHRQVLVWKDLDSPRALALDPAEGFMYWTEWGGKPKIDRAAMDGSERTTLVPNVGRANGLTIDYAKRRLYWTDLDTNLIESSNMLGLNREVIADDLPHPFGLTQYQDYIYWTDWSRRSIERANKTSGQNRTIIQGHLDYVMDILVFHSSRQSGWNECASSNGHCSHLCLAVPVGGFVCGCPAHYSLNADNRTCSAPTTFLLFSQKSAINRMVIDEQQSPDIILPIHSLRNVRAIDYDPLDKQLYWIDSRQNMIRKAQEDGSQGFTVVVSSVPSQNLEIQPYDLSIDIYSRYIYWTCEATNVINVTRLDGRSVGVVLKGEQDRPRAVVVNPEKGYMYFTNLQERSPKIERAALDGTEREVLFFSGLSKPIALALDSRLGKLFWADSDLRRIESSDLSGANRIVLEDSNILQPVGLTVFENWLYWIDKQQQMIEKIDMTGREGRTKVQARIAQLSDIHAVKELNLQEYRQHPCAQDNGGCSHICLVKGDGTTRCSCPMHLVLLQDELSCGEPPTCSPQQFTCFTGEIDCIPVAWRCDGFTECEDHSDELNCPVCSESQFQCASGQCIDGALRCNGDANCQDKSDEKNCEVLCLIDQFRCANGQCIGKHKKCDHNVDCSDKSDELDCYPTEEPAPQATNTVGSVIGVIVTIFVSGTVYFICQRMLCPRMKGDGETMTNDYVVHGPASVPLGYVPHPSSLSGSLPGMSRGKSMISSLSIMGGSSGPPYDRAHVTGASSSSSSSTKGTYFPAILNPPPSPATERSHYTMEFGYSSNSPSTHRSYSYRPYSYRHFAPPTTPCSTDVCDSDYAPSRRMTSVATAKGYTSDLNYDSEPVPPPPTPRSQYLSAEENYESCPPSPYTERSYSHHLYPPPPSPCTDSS

arginine-isoleucine-proline [SEQ ID NO: 10]
expression of FGF10 protein [1]: increased
expression of IGF-I protein [1]: increased
expression of VEGF protein [1]: increased
expression of FGF1 gene (FGF1 and FGF7): increased
expression of FGF7 gene (FGF1 and FGF7): increased
gene expression of ALP (MMP-2 and ALP): increased
gene expression of MMP-2 (MMP-2 and ALP): increased
expression of p-GSK3β protein [2]: significantly increased
expression of β-catenin protein [2]: significantly increased
expression of active β-catenin protein, concentration screening [2]: increased
p21 protein expression [3]: significantly reduced
hair shaft growth (length of hair shaft) (human hair follicles): superior hair shaft growth
recovery (increase) of expression level of non-phospho (active) β-catenin [4]: ~31%

recombinant protein DKK-1 (Dickkopf-1) (from UniProt O94907 32-266) (ligand)
expression level of non-phospho(active) β-catenin in HFDPCs (western blot), decrease against untreated control (LRP5): 24%
expression level of non-phospho(active) β-catenin in HFDPCs (western blot), decrease against untreated control (LRP6): 24%

serine-cysteine-arginine-isoleucine-glutamine [SEQ ID NO: 5]
expression of FGF10 protein [1]: increased
expression of IGF-I protein [1]: increased
expression of VEGF protein [1]: increased
expression of FGF1 gene (FGF1 and FGF7): increased
expression of FGF7 gene (FGF1 and FGF7): increased
gene expression of ALP (MMP-2 and ALP): increased
gene expression of MMP-2 (MMP-2 and ALP): increased
expression of p-GSK3β protein [2]: significantly increased
expression of β-catenin protein [2]: significantly increased
expression of active β-catenin protein, concentration screening [2]: increased
p21 protein expression [3]: significantly reduced
hair shaft growth (length of hair shaft) (human hair follicles): superior hair shaft growth
recovery (increase) of expression level of non-phospho (active) β-catenin [4]: about 10%

B1: peptide of SEQ ID NO: 5 (serine-cysteine-arginine-isoleucine-glutamine, SCRIQ) (peptide)
peptide: SCRIQ
expression level of non-phospho (active) β-catenin in HFDPCs treated with recombinant DKK-1 (western blot), recovery (LRP5): ~10%
expression level of non-phospho (active) β-catenin in HFDPCs treated with recombinant DKK-1 (western blot), recovery (LRP6): ~10%

B2: peptide of SEQ ID NO: 10 (arginine-isoleucine-proline, RIP) (peptide)
peptide: RIP
expression level of non-phospho (active) β-catenin in HFDPCs treated with recombinant DKK-1 (western blot), recovery (LRP5): ~31%
expression level of non-phospho (active) β-catenin in HFDPCs treated with recombinant DKK-1 (western blot), recovery (LRP6): ~31%

B3: DKK-1: recombinant protein, potent antagonist of the Wnt/β-catenin signaling pathway, ligand of LRP5/6 (protein)
chain: TLNSVLNSNAIKNLPPPLGGAAGHPGSAVSAAPGILYPGGNKYQTIDNYQPYPCAEDEECGTDEYCASPTRGGDAGVQICLACRKRRKRCMRHAMCCPGNYCKNGICVSSDQNHFRGEIEETITESFGNDHSTLDGYSRRTTLSSKMYHTKGQEGSVCLRSSDCASGLCCARHFWSKICKPVLKEGQVCTKHRRKGSHGLEIFQRCYCGEGLSCRIQKDHHQASNSSRLHTCQRH
decrease of expression level of non-phospho(active) β-catenin ([4]; control group treated with recombinant protein DKK-1): about 24%
